{"source": "patent US20240228535A1", "about": "(priority 2022, published 2024)", "data": [{"target": "SARS2 coronavirus 3CL protease (Severe acute respiratory syndrome coronavirus 2, UniProt P0DTD1)", "assay": "biochemical", "conditions": "5 nM enzyme, 30 min pre-incubation with compound, 15 μM peptide substrate, 4 h at room temperature; read-out: FRET Potency (nM); IC50 values in the SARS2 3CLPro FRET assay", "units": {"IC50": "nM"}, "values": [{"smiles": "CNC(=O)C(=O)[C@H](C[C@@H]1C[C@@H](C)NC1=O)NC(=O)c1cc(Cl)cc(Cl)c1NC(=O)c1ccnc(C(F)(F)F)c1", "note": "[Example 231, N-[2,4-dichloro-6-[[(1S)-3-(methylamino)-1-[[(3S,5R)-5-methyl-2-oxo-pyrrolidin-3-yl]methyl]-2,3-dioxo-propyl]carbamoyl]phenyl]-2-(trifluoromethyl)pyridine-4-carboxamide]", "IC50": 5.6}, {"smiles": "C[C@@H]1C[C@@H](C[C@H](NC(=O)c2cc(F)c(F)cc2NC(=O)c2ccnc(C(F)(F)F)c2)C(=O)C(=O)NC2CC2)C(=O)N1", "note": "[Example 49, N-[2-[[(1S)-3-(cyclopropylamino)-1-[[(3S,5R)-5-methyl-2-oxo-pyrrolidin-3-yl]methyl]-2,3-dioxo-propyl]carbamoyl]-4,5-difluoro-phenyl]-2-(trifluoromethyl)pyridine-4-carboxamide]", "IC50": 8.8}, {"smiles": "O=C(NC1CC1)C(=O)[C@H](C[C@@H]1CCNC1=O)NC(=O)c1cc(F)ccc1NC(=O)C1(C(F)(F)F)CC1", "note": "[Example 12, N-[(1S)-3-(cyclopropylamino)-2,3-dioxo-1-[[(3S)-2-oxopyrrolidin-3-yl]methyl]propyl]-5-fluoro-2-[[1-(trifluoromethyl)cyclopropane-carbonyl]amino]benzamide]", "IC50": 48.2}, {"smiles": "CNC(=O)C(=O)[C@H](C[C@@H]1C[C@@H](C)NC1=O)NC(=O)c1cc(Cl)ccc1NC(=O)OCC1CCCC(F)(F)C1", "note": "(stereo partly drawn) [Example 219, (3,3-difluorocyclohexyl)methyl N-[4-chloro-2-[[(1S)-3-(methylamino)-1-[(3S,5R)-5-methyl-2-oxo-pyrrolidin-3-yl]methyl]-2,3-dioxo-propyl]carbamoyl]phenyl] carbamate]", "IC50": 7.1}, {"smiles": "[2H]C([2H])([2H])OC(=O)Nc1ccc(Cl)cc1C(=O)N[C@@H](C[C@@H]1C[C@@H](C)NC1=O)C(=O)C(=O)NC", "note": "[Example 112, trideuteriomethyl N-[4-chloro-2-[[(1S)-3-(methylamino)-1-[[(3S,5R)-5-methyl-2-oxo-pyrrolidin-3-yl]methyl]-2,3-dioxo-propyl]carbamoyl]phenyl] carbamate]", "IC50": 6}, {"smiles": "O=C(NC1CC1)C(=O)[C@H](C[C@@H]1CCNC1=O)NC(=O)c1cc(Cl)ccc1NC(=O)[C@H]1CC1(F)F", "note": "[Example 168]", "IC50": 12}, {"smiles": "C[C@@H]1C[C@@H](C[C@H](NC(=O)c2cc(Cl)c(F)cc2NC(=O)CCC(F)(F)F)C(=O)C(=O)NC2CC2)C(=O)N1", "note": "[Example 53, 5-chloro-N-[(1S)-3-(cyclopropylamino)-1-[[(3S,5R)-5-methyl-2-oxo-pyrrolidin-3-yl]methyl]-2,3-dioxo-propyl]-4-fluoro-2-(4,4,4-trifluorobutanoylamino) benzamide]", "IC50": 8.3}, {"smiles": "CNC(=O)C(=O)[C@H](C[C@@H]1C[C@@H](C)NC1=O)NC(=O)c1cc(C(F)F)ccc1NC(=O)c1ccnc(C(F)(F)F)c1", "note": "[Example 222, N-[4-(difluoromethyl)-2-[[(1S)-3-(methylamino)-1-[[(3S,5R)-5-methyl-2-oxo-pyrrolidin-3-yl]methyl]-2,3-dioxo-propyl]carbamoyl]phenyl]-2-(trifluoromethyl)pyridine-4-carboxamide]", "IC50": 5.2}, {"smiles": "CNC(=O)C(=O)[C@H](C[C@@H]1C[C@@H](C)NC1=O)NC(=O)c1cc(Cl)ccc1NC(=O)C1CC1C(F)(F)F", "note": "(stereo partly drawn) [Example 189, 5-chloro-N-[(1S)-3-(methylamino)-1-[[(3S,5R)-5-methyl-2-oxo-pyrrolidin-3-yl]methyl]-2,3-dioxo-propyl]-2-[[2-(trifluoromethyl)cyclopropane-carbonyl]amino]benzamide]", "IC50": 3.5}, {"smiles": "CNC(=O)C(=O)[C@H](C[C@@H]1C[C@@H](C)NC1=O)NC(=O)c1cc(F)c(Cl)cc1NC(=O)OC1CC1", "note": "[Example 155, cyclopropyl N-[5-chloro-4-fluoro-2-[[(1S)-3-(methylamino)-1-[[(3S,5R)-5-methyl-2-oxo-pyrrolidin-3-yl]methyl]-2,3-dioxo-propyl]carbamoyl]phenyl] carbamate]", "IC50": 30.4}, {"smiles": "CNC(=O)C(=O)[C@H](C[C@@H]1C[C@@H](C)NC1=O)NC(=O)c1cc(Cl)ccc1NC(=O)CCC(F)(F)F", "note": "[Example 178, 5-chloro-N-[(1S)-3-(methylamino)-1-[[(3S,5R)-5-methyl-2-oxo-pyrrolidin-3-yl]methyl]-2,3-dioxo-propyl]-2-(4,4,4-trifluorobutanoylamino) benzamide]", "IC50": 7}, {"smiles": "O=C(CC(F)(F)F)Nc1ccc(Cl)cc1C(=O)N[C@@H](C[C@@H]1CCNC1=O)C(=O)C(=O)NC1CC1", "note": "[Example 38, 5-chloro-N-[(1S)-3-(cyclopropylamino)-2,3-dioxo-1-[[(3S)-2-oxopyrrolidin-3-yl]methyl]propyl]-2-(3,3,3-trifluoropropanoylamino) benzamide]", "IC50": 10.5}, {"smiles": "C[C@@H]1C[C@@H](C[C@H](NC(=O)c2cc(Cl)ccc2NC(=O)CCC(F)(F)F)C(=O)C(=O)NCc2nc[nH]n2)C(=O)N1", "note": "[Example 116, 5-chloro-N-[(1S)-1-[[(3S,5R)-5-methyl-2-oxo-pyrrolidin-3-yl]methyl]-2,3-dioxo-3-(1H-1,2,4-triazol-3-ylmethylamino)propyl]-2-(4,4,4-trifluorobutanoylamino) benzamide]", "IC50": 20.9}, {"smiles": "CNC(=O)C(=O)[C@H](C[C@@H]1C[C@@H](C)NC1=O)NC(=O)c1cc(Cl)ccc1NC(=O)C1COC1", "note": "[Example 135]", "IC50": 3}, {"smiles": "CNC(=O)C(=O)[C@H](C[C@@H]1CCNC1=O)NC(=O)c1cc(Cl)ccc1NC(=O)OC1CCC1", "note": "[Example 137, cyclobutyl N-[4-chloro-2-[[(1S)-3-(methylamino)-2,3-dioxo-1-[[(3S)-2-oxopyrrolidin-3-yl]methyl]propyl]carbamoyl]phenyl]carbamate]", "IC50": 5.4}, {"smiles": "CNC(=O)C(=O)[C@H](C[C@@H]1C[C@@H](C)NC1=O)NC(=O)c1cc(Cl)ccc1NC(=O)C1CCCC1(F)F", "note": "(stereo partly drawn) [Example 185, 5-chloro-2-[(2,2-difluorocyclopentanecarbonyl)amino]-N-[(1S)-3-(methylamino)-1-[[(3S,5R)-5-methyl-2-oxo-pyrrolidin-3-yl]methyl]-2,3-dioxo-propyl]benzamide]", "IC50": 9}, {"smiles": "C[C@@H]1C[C@@H](C[C@H](NC(=O)c2cc(Cl)ccc2NC(=O)C2CC2C(F)(F)F)C(=O)C(=O)NC2CC2)C(=O)N1", "note": "(stereo partly drawn) [Example 97, 5-chloro-N-[(1S)-3-(cyclopropylamino)-1-[[(3S,5R)-5-methyl-2-oxo-pyrrolidin-3-yl]methyl]-2,3-dioxo-propyl]-2-[[2-(trifluoromethyl)cyclopropane-carbonyl]amino]benzamide]", "IC50": 7.7}, {"smiles": "CNC(=O)C(=O)[C@H](C[C@@H]1C[C@@H](C)NC1=O)NC(=O)c1cc(Cl)ncc1NC(=O)OC", "note": "[Example 118]", "IC50": 23.9}, {"smiles": "CNC(=O)C(=O)[C@H](C[C@@H]1C[C@@H](C)NC1=O)NC(=O)c1cc(Cl)ccc1NC(=O)OC1CCC(F)(F)C1", "note": "(stereo partly drawn) [Example 201, (3,3-difluorocyclopentyl) N-[4-chloro-2-[(1S)-3-(methylamino)-1-[[(3S,5R)-5-methyl-2-oxo-pyrrolidin-3-yl]methyl]-2,3-dioxo-propyl]carbamoyl]phenyl] carbamate]", "IC50": 7}, {"smiles": "O=C(NC1CC1)C(=O)[C@H](C[C@@H]1CCNC1=O)NC(=O)c1cc(Cl)c(F)cc1NC(=O)c1cncc(C(F)(F)F)c1", "note": "[Example 79]", "IC50": 11.3}, {"smiles": "CNC(=O)C(=O)[C@H](C[C@@H]1CCNC1=O)NC(=O)c1cc(Cl)ccc1NC(=O)OCC1CC1", "note": "[Example 136, cyclopropylmethyl N-[4-chloro-2-[[(1S)-3-(methylamino)-2,3-dioxo-1-[[(3S)-2-oxopyrrolidin-3-yl]methyl]propyl]carbamoyl]phenyl]carbamate]", "IC50": 3.6}, {"smiles": "[2H]C([2H])([2H])OC(=O)Nc1ccc(Cl)cc1C(=O)N[C@@H](C[C@@H]1CCNC1=O)C(=O)C(=O)NC", "note": "[Example 108, trideuteriomethyl N-[4-chloro-2-[[(1S)-3-(methylamino)-2,3-dioxo-1-[[(3S)-2-oxopyrrolidin-3-yl]methyl]propyl]carbamoyl]phenyl]carbamate]", "IC50": 4.8}, {"smiles": "CNC(=O)C(=O)[C@H](C[C@@H]1C[C@@H](C)NC1=O)NC(=O)c1cc(Cl)ccc1NC(=O)C(C)c1ccc(C(F)(F)F)nc1", "note": "(single isomer, unassigned) [Example 229]", "IC50": 33.5}, {"smiles": "CNC(=O)C(=O)[C@H](C[C@@H]1C[C@@H](C)NC1=O)NC(=O)c1cc(Cl)ccc1NC(=O)OC1CC(F)(F)C1", "note": "[Example 188, (3,3-difluorocyclobutyl) N-[4-chloro-2-[(1S)-3-(methylamino)-1-[[(3S,5R)-5-methyl-2-oxo-pyrrolidin-3-yl]methyl]-2,3-dioxo-propyl]carbamoyl]phenyl] carbamate]", "IC50": 7.2}, {"smiles": "C[C@@H]1C[C@@H](C[C@H](NC(=O)c2cc(F)ccc2NC(=O)c2cccc(C(F)(F)F)c2)C(=O)C(=O)NC2CC2)C(=O)N1", "note": "[Example 78, N-[(1S)-3-(cyclopropylamino)-1-[[(3S,5R)-5-methyl-2-oxo-pyrrolidin-3-yl]methyl]-2,3-dioxo-propyl]-5-fluoro-2-[[3-(trifluoromethyl)benzoyl]amino]benzamide]", "IC50": 4.6}, {"smiles": "CNC(=O)C(=O)[C@H](C[C@@H]1C[C@@H](C)NC1=O)NC(=O)c1cc(Cl)ccc1NC(=O)C(C)c1ccnc(C(F)(F)F)c1", "note": "(stereo partly drawn) [Example 228, 5-chloro-N-[(1S)-3-(methylamino)-1-[[(3S,5R)-5-methyl-2-oxo-pyrrolidin-3-yl]methyl]-2,3-dioxo-propyl]-2-[2-[2-(trifluoromethyl)-4-pyridyl]propanoylamino] benzamide]", "IC50": 6.1}, {"smiles": "C[C@@H]1C[C@@H](C[C@H](NC(=O)c2cc(Cl)ccc2NC(=O)CCC(F)(F)F)C(=O)C(N)=O)C(=O)N1", "note": "[Example 158, N-[(1S)-3-amino-1-[[(3S,5R)-5-methyl-2-oxo-pyrrolidin-3-yl]methyl]-2,3-dioxo-propyl]-5-chloro-2-(4,4,4-trifluorobutanoylamino) benzamide]", "IC50": 8.3}, {"smiles": "COC(=O)Nc1ccc(Cl)cc1C(=O)N[C@@H](C[C@@H]1C[C@@H](C)NC1=O)C(=O)C(N)=O", "note": "[Example 107, methyl N-[2-[[(1S)-3-amino-1-[[(3S,5R)-5-methyl-2-oxo-pyrrolidin-3-yl]methyl]-2,3-dioxo-propyl]carbamoyl]-4-chloro-phenyl]carbamate]", "IC50": 12.6}]}]}
